Numbered stars: 1 amine (or outer) side, 2 acyl side, 3 side chain; on linkers, the order of the positions; unused ones are H or OH. Bridge positions count the residues as written; N and C are the ends. Square brackets hold non-standard residues; d marks the D form. Side chains are listed from the residue outwards. Peptide text beside a SMILES is read from it. * marks the point of attachment. C18 diacid = O=C(O)CCCCCCCCCCCCCCCCC(=O)*; γGlu = O=C(O)[C@H](CCC(=O)[*:2])N[*:1]; αMeF = C[C@](N)(Cc1ccccc1)C(=O)O; Dab = NCC[C@H](N)C(=O)O; AEEA = NCCOCCOCC(=O)O; Aib = CC(C)(N)C(=O)O

This data set can be described thus: Thioflavin T fibrillation assay. Type of data set: physicochemical. Conditions: 1 mg/mL in 25 mM sodium acetate buffer pH 4.0, 37° C., 6 days, orbital shaking; >144 h = no increase. From the text:
Peptide aggregation that form fibrils is an indication of physical instability. Fibril formation in solution poses a significant risk for the stability of injectable peptide drug products. Thioflavin T (ThT) fibrillation assay is a useful tool to assess the aggregation kinetics of a peptide or protein under accelerated and stressed conditions that can be used to forecast the long-term viability of a compound in solution. ThT can selectively bind amyloid fibrils and the resultant complex emits strong fluorescence signal at 482 nm when excited at 450 nm (Anal Biochem. 1989 March; 177 (2): 244-9). Monitoring of the change in fluorescence signal is an established method to study the fibril forming potential of peptides and proteins. ThT (purchased from Sigma Aldrich) stock solution is prepared by dissolving the ThT powder in Milli-Q water and filtered to obtain a 0.25 mM solution. The concentration of the solution is measured at 412 nm using an extinction coefficient of 36 mM-1 cm-1. Test peptides were dissolved at 1 mg/mL in 25 mM sodium acetate buffer pH 4.0. 100 μL aliquot of peptide solution and 5 μL aliquot of ThT solution were placed in a clear bottom black fluorescence 96-well plate. 5 replicates of each test samples were placed in the same row of the plate. Buffer was placed in control wells for baseline correction. All empty wells were filled with water to prevent evaporation. The plate was sealed with aluminium seal and placed in fluorescence plate reader and incubated for 6 days at 37° C. with intermittent orbital shaking at 500 to 750 rpm. The fluorescence intensity was measured every 30 min using excitation at 444 nm and emission at 480 nm. The fibril forming potential of the test peptides was determined by measuring the average time taken to detect an increase in baseline corrected fluorescence intensity.
In the case of `CC[C@H](C)[C@H](NC(=O)[C@@H]1CCCN1C(=O)CNC(=O)[C@H](Cc1ccccc1)NC(=O)[C@H](CC(N)=O)NC(=O)C(C)(C)NC(=O)[C@H](CO)NC(=O)[C@H](CO)NC(=O)[C@H](Cc1c[nH]cn1)NC(=O)[C@@H](NC(=O)[C@H](CC(C)C)NC(=O)[C@H](Cc1ccccc1)NC(=O)[C@H](CC(N)=O)NC(=O)[C@H](C)NC(=O)[C@H](CC(C)C)NC(=O)[C@H](CCCNC(=N)N)NC(=O)[C@H](CCC(N)=O)NC(=O)[C@@H](NC(=O)[C@H](C)NC(=O)[C@@H]1CSSC[C@H](NC(=O)[C@H](CCCCN)NC(=O)[C@@H](N)CCCCNC(=O)CC[C@H](NC(=O)CCCCCCCCCCCCCCCCC(=O)O)C(=O)O)C(=O)N[C@@H](CC(N)=O)C(=O)N[C@@H]([C@@H](C)O)C(=O)N[C@@H](C)C(=O)N[C@@H]([C@@H](C)O)C(=O)N1)[C@@H](C)O)C(C)C)C(=O)N[C@@H](CC(C)C)C(=O)N1CCC[C@H]1C(=O)N1CCC[C@H]1C(=O)N[C@H](C(=O)NC(C)(C)C(=O)N[C@H](C(=O)NCC(=O)N[C@@H](CO)C(=O)N[C@@H](CC(N)=O)C(=O)N[C@H](C(=O)N[C@@H](Cc1ccc(O)cc1)C(N)=O)[C@@H](C)O)C(C)C)[C@@H](C)O` [Peptide 80, K(γE-C18diacid)K[CNTATC]ATQRLANFLVHSS(Aib)NFGPILPPT(Aib)VGSNTY-amide] (H-K([γGlu-C18 diacid])KCNTATCATQRLANFLVHSS[Aib]NFGPILPPT[Aib]VGSNTY-NH2; disulfide 3-8; N-terminus assumed), the “Time taken to detect increase in fluorescence intensity” value (“Time taken to detect increase” for short) is recorded as more than 144 h.

Take `CC[C@H](C)[C@H](NC(=O)[C@@H]1CCCN1C(=O)CNC(=O)[C@](C)(Cc1ccccc1)NC(=O)[C@H](CC(N)=O)NC(=O)[C@H](CC(N)=O)NC(=O)[C@H](CO)NC(=O)[C@H](CO)NC(=O)[C@H](Cc1c[nH]cn1)NC(=O)[C@H](CCCNC(=N)N)NC(=O)[C@H](CC(C)C)NC(=O)[C@H](Cc1ccccc1)NC(=O)[C@H](CC(N)=O)NC(=O)[C@H](C)NC(=O)[C@H](CC(C)C)NC(=O)[C@H](CCCNC(=N)N)NC(=O)[C@H](CCC(N)=O)NC(=O)[C@@H](NC(=O)[C@H](C)NC(=O)[C@@H]1CSSC[C@H](NC(=O)[C@@H](N)CCCCNC(=O)COCCOCCNC(=O)COCCOCCNC(=O)CC[C@H](NC(=O)CCCCCCCCCCCCCCCCC(=O)O)C(=O)O)C(=O)N[C@@H](CC(N)=O)C(=O)N[C@@H]([C@@H](C)O)C(=O)N[C@@H](C)C(=O)N[C@@H]([C@@H](C)O)C(=O)N1)[C@@H](C)O)C(=O)N[C@@H](CC(C)C)C(=O)N1CCC[C@H]1C(=O)N1CCC[C@H]1C(=O)N[C@H](C(=O)N[C@@H](CCC(=O)O)C(=O)N[C@H](C(=O)NCC(=O)N[C@@H](CO)C(=O)N[C@@H](CC(N)=O)C(=O)N[C@H](C(=O)N[C@@H](Cc1ccc(O)cc1)C(N)=O)[C@@H](C)O)C(C)C)[C@@H](C)O` [Peptide 17, K(O2Oc-O2Oc-γE-C18diacid)[CNTATC]ATQRLANFLRHSSNN(αMePhe)GPILPPTEVGSNTY-amide] (H-K([AEEA-AEEA-γGlu-C18 diacid])CNTATCATQRLANFLRHSSNN[αMeF]GPILPPTEVGSNTY-NH2; disulfide 2-7; N-terminus assumed): the “Time taken to detect increase” value is listed as more than 144 h.

In the case of `CC[C@H](C)[C@H](NC(=O)[C@@H]1CCCN1C(=O)CNC(=O)[C@H](Cc1ccccc1)NC(=O)[C@H](CC(N)=O)NC(=O)[C@H](CC(N)=O)NC(=O)[C@H](CO)NC(=O)[C@H](CO)NC(=O)[C@H](Cc1c[nH]cn1)NC(=O)[C@@H](NC(=O)[C@H](CC(C)C)NC(=O)[C@H](Cc1ccccc1)NC(=O)[C@H](CCN)NC(=O)[C@H](C)NC(=O)[C@H](CC(C)C)NC(=O)[C@H](CCCNC(=N)N)NC(=O)[C@H](CCC(N)=O)NC(=O)[C@@H](NC(=O)[C@H](C)NC(=O)[C@@H]1CSSC[C@H](NC(=O)[C@H](CCCCN)NC(=O)[C@@H](N)CCCCNC(=O)CC[C@H](NC(=O)CCCCCCCCCCCCCCCCC(=O)O)C(=O)O)C(=O)N[C@@H](CC(N)=O)C(=O)N[C@@H]([C@@H](C)O)C(=O)N[C@@H](C)C(=O)N[C@@H]([C@@H](C)O)C(=O)N1)[C@@H](C)O)C(C)C)C(=O)N[C@@H](CC(C)C)C(=O)N1CCC[C@H]1C(=O)N1CCC[C@H]1C(=O)N[C@H](C(=O)N[C@@H](CC(N)=O)C(=O)N[C@H](C(=O)NCC(=O)N[C@@H](CO)C(=O)N[C@@H](CC(N)=O)C(=O)N[C@H](C(=O)N[C@@H](Cc1ccc(O)cc1)C(N)=O)[C@@H](C)O)C(C)C)[C@@H](C)O` [Peptide 33] (H-K([γGlu-C18 diacid])KCNTATCATQRLA[Dab]FLVHSSNNFGPILPPTNVGSNTY-NH2; disulfide 3-8; N-terminus assumed), the “Time taken to detect increase” value was more than 144 h.

On to `CC[C@H](C)[C@H](NC(=O)[C@H](C)NC(=O)[C@@H]1CCCN1C(=O)[C@H](Cc1ccccc1)NC(=O)[C@H](CC(N)=O)NC(=O)C(C)(C)NC(=O)[C@H](CO)NC(=O)[C@H](CO)NC(=O)[C@H](Cc1c[nH]cn1)NC(=O)[C@@H](NC(=O)[C@H](CC(C)C)NC(=O)[C@H](Cc1ccccc1)NC(=O)[C@H](CC(N)=O)NC(=O)[C@H](C)NC(=O)[C@H](CC(C)C)NC(=O)[C@H](CCCNC(=N)N)NC(=O)[C@H](CCC(N)=O)NC(=O)[C@@H](NC(=O)[C@H](C)NC(=O)[C@@H]1CSSC[C@H](NC(=O)[C@@H](N)CCCCNC(=O)CC[C@H](NC(=O)CC[C@H](NC(=O)CCCCCCCCCCCCCCCCC(=O)O)C(=O)O)C(=O)O)C(=O)N[C@@H](CC(N)=O)C(=O)N[C@@H]([C@@H](C)O)C(=O)N[C@@H](C)C(=O)N[C@@H]([C@@H](C)O)C(=O)N1)[C@@H](C)O)C(C)C)C(=O)N[C@@H](CC(C)C)C(=O)N[C@@H](CO)C(=O)N1CCC[C@H]1C(=O)N[C@H](C(=O)N[C@@H](CC(N)=O)C(=O)N[C@H](C(=O)NCC(=O)N[C@@H](CO)C(=O)N[C@@H](CC(N)=O)C(=O)N[C@H](C(=O)N[C@@H](Cc1ccc(O)cc1)C(N)=O)[C@@H](C)O)C(C)C)[C@@H](C)O` [Peptide 9, K(γE-γE-C18diacid)[CNTATC]ATQRLANFLVHSS(Aib)NFPAILSPTNVGSNTY-amide] (H-K([γGlu-γGlu-C18 diacid])CNTATCATQRLANFLVHSS[Aib]NFPAILSPTNVGSNTY-NH2; disulfide 2-7; N-terminus assumed), for which the “Time taken to detect increase” value is on record as 7 h.

As to `CC[C@H](C)[C@H](NC(=O)[C@@H]1CCCN1C(=O)CNC(=O)[C@H](Cc1ccccc1)NC(=O)[C@H](CC(N)=O)NC(=O)[C@H](CC(N)=O)NC(=O)[C@H](CO)NC(=O)[C@H](CO)NC(=O)[C@H](Cc1c[nH]cn1)NC(=O)C(C)(C)NC(=O)[C@H](CC(C)C)NC(=O)[C@H](Cc1ccccc1)NC(=O)[C@H](CCN)NC(=O)[C@H](C)NC(=O)[C@H](CC(C)C)NC(=O)[C@H](CCCNC(=N)N)NC(=O)[C@H](CCC(N)=O)NC(=O)[C@@H](NC(=O)[C@H](C)NC(=O)[C@@H]1CSSC[C@H](NC(=O)[C@H](CCCCN)NC(=O)[C@@H](N)CCCCNC(=O)CC[C@H](NC(=O)CCCCCCCCCCCCCCCCC(=O)O)C(=O)O)C(=O)N[C@@H](CC(N)=O)C(=O)N[C@@H]([C@@H](C)O)C(=O)N[C@@H](C)C(=O)N[C@@H]([C@@H](C)O)C(=O)N1)[C@@H](C)O)C(=O)N[C@@H](CC(C)C)C(=O)N1CCC[C@H]1C(=O)N1CCC[C@H]1C(=O)N[C@H](C(=O)N[C@@H](CCC(=O)O)C(=O)N[C@H](C(=O)NCC(=O)N[C@@H](CO)C(=O)N[C@@H](CC(N)=O)C(=O)N[C@H](C(=O)N[C@@H](Cc1ccc(O)cc1)C(N)=O)[C@@H](C)O)C(C)C)[C@@H](C)O` [Peptide 156] (H-K([γGlu-C18 diacid])KCNTATCATQRLA[Dab]FL[Aib]HSSNNFGPILPPTEVGSNTY-NH2; disulfide 3-8; N-terminus assumed), the “Time taken to detect increase” value was more than 144 h.

With `CC[C@H](C)[C@H](NC(=O)[C@@H]1CCCN1C(=O)CNC(=O)[C@](C)(Cc1ccccc1)NC(=O)[C@H](CC(N)=O)NC(=O)[C@H](CC(N)=O)NC(=O)[C@H](CO)NC(=O)[C@H](CO)NC(=O)[C@H](Cc1c[nH]cn1)NC(=O)[C@H](CCCNC(=N)N)NC(=O)[C@H](CC(C)C)NC(=O)[C@H](Cc1ccccc1)NC(=O)[C@H](CC(N)=O)NC(=O)[C@H](C)NC(=O)[C@H](CC(C)C)NC(=O)[C@H](CCCNC(=N)N)NC(=O)[C@H](CCC(N)=O)NC(=O)[C@@H](NC(=O)[C@H](C)NC(=O)[C@@H]1CSSC[C@H](NC(=O)[C@@H](N)CCCCNC(=O)CC[C@H](NC(=O)CC[C@H](NC(=O)CCCCCCCCCCCCCCCCC(=O)O)C(=O)O)C(=O)O)C(=O)N[C@@H](CC(N)=O)C(=O)N[C@@H]([C@@H](C)O)C(=O)N[C@@H](C)C(=O)N[C@@H]([C@@H](C)O)C(=O)N1)[C@@H](C)O)C(=O)N[C@@H](CC(C)C)C(=O)N1CCC[C@H]1C(=O)N1CCC[C@H]1C(=O)N[C@H](C(=O)N[C@@H](CCC(=O)O)C(=O)N[C@H](C(=O)NCC(=O)N[C@@H](CO)C(=O)N[C@@H](CC(N)=O)C(=O)N[C@H](C(=O)N[C@@H](Cc1ccc(O)cc1)C(N)=O)[C@@H](C)O)C(C)C)[C@@H](C)O` [Peptide 18, K(γE-γE-C18diacid)[CNTATC]ATQRLANFLRHSSNN(αMePhe)GPILPPTEVGSNTY-amide] (H-K([γGlu-γGlu-C18 diacid])CNTATCATQRLANFLRHSSNN[αMeF]GPILPPTEVGSNTY-NH2; disulfide 2-7; N-terminus assumed), the “Time taken to detect increase” value is recorded as more than 144 h.
